{"source": "patent US20080045519A1", "about": "“Method to Fight Against Insects Including the Use of Hydrocarbon Compounds” (priority 2004, published 2008)", "tested_on": "worker termites of Reticulitermes santonensis type", "experiment": "Insecticidal activity of fipronil plus hydrocarbon compound mixture, termite mortality after 3 days (Example 4)", "assay_type": "in vivo", "settings": "matrix sprayed with hydrocarbon compound mixture (Mixture B), 100 termites", "experimental": "The experiment is conducted in a LAB test box (6 cm×9 cm) containing on the bottom 2 mm of wet Fontainebleau sand and is repeated five times. In the box, a matrix is placed, consisting of a foam cube in which holes are made with a diameter of 5 mm, over which a small piece of poplar wood is placed (1 cm×2 cm×2 cm). The foam is impregnated with cold fipronil. The matrix is sprayed with a hydrocarbon compound mixture including 11.4% of 5-methylpentacosane; 36.3% of 11-methylpentacosane; 19.6% of (Z)-9-pentacosene; 27.7% of n-pentacosane, and 5% of n-hexacosane. Only 4 faces are sprayed. The top and the bottom of the matrix are not treated.\nIn the box, an untreated piece of poplar wood is also placed in order to recreate a natural situation as exactly as possible.\n100 worker termites of Reticulitermes santonensis type are placed in the box and their mortality after 3 days is evaluated. Various concentrations of cold fipronil are tested: 0.5 ppm, 1 ppm, 2 ppm, 5 ppm, and 7 ppm.", "note": "“And” between values parts separate entries of the source, which are not always exact repeats. Equal values may be shown once."}
{"smiles": "N#Cc1nn(-c2c(Cl)cc(C(F)(F)F)cc2Cl)c(N)c1[S+]([O-])C(F)(F)F", "note": "(stereo not drawn) [Fipronil, fipronil]", "values": [{"measurement": "Number of termites dead after 3 days", "setting": "fipronil at 0.5 ppm, average of 5 trials", "result": 0}, {"measurement": "Number of termites dead after 3 days", "setting": "fipronil at 0.5 ppm, single trials", "result": 0}, {"measurement": "Number of termites dead after 3 days", "setting": "fipronil at 1 ppm, average of 5 trials", "result": 0}, {"measurement": "Number of termites dead after 3 days", "setting": "fipronil at 1 ppm, single trials", "result": 0}, {"measurement": "Number of termites dead after 3 days", "setting": "fipronil at 2 ppm, average of 5 trials", "result": 20}, {"measurement": "Number of termites dead after 3 days", "setting": "fipronil at 5 ppm, average of 5 trials", "result": 50.4}, {"measurement": "Number of termites dead after 3 days", "setting": "fipronil at 5 ppm, single trials", "result": "42 and 45 and 59 and 56 and 50"}, {"measurement": "Number of termites dead after 3 days", "setting": "fipronil at 7 ppm, average of 5 trials", "result": 50.8}, {"measurement": "Number of termites dead after 3 days", "setting": "fipronil at 7 ppm, single trials", "result": "60 and 42 and 55 and 34 and 63"}]}
